Data: patent US6589971B1, “Bis-benzazoles and their use as antineoplastic agents” (The Queens University of Belfast, priority 1999, dated 2003)
Values joined by “and” are separate entries in the source; they are usually repeats but may differ in a detail not shown here. Equal entries are not always repeated.

Columns and labels:
[1] = system: A/T sites of a natural DNA fragment; experiment: DNase I footprinting with a natural DNA fragment; type: binding; settings: for DNA site preference: natural DNA fragment
Excerpt: The ability of the head-to-head bis-benzimidazoles to discriminate between the 136 possible tetranucleotide sequences may be further enhanced by flanking sequence preferences. These remain to be systematically explored.

A2780 = experiment: Cytotoxicity (growth inhibition), 96 hour exposure, ovarian cell line panel; settings: read-out: Cytotoxicity IC50, A2780
Method: (§1) Assessment of growth inhibition was performed in a small panel of (e.g.) human ovarian carcinoma cell lines using the Sulforhodamine B (SRB assay) (Kelland et al, Cancer Research 54, 5618-5622 (1994). The cell lines grew as monolayers in Dulbecco's Modified Eagle's medium containing 10% foetal bovine serum (Imperial Laboratories, Andover, UK) supplemented with 2 mM glutamine and 0.5 μg/ml hydrocortisone in 6% CO2/94% air. The compound to be tested was dissolved in 10% dimethylsulfoxide. Cells were seeded into 96-well microtitre plates at 3000-5000 per well and allowed to attach overnight. Serial dilutions of drug in growth medium were then added to quadruplicate wells (with 8 control untreated wells) and left to incubate under normal growth conditions for 96 hr, unless otherwise stated. The medium was then removed and wells fixed with 10% trichloroacetic acid and stained with 0.4% SRB in 1% acetic acid as described previously (Kelland et al ref). Basic amino acid content in each well was then measured by solubilizing the bound SRB with 10 mM Tris and using a Titertek Multiscan MCC/340 MKII plate reader set at 540 nm. Mean absorbance was then expressed as a percentage of the control untreated well absorbance and plotted vs drug concentration. Comparisons were made in terms of IC50 values, (the concentration that reduced the mean absorbance to 50% of those in control wells) and Resistance Factors (RF, the IC50 in a resistant subline vs its parent line).

A2780-PT^R = experiment: as above; settings: read-out: Cytotoxicity IC50, A2780-PT^R
Method: as §1

SKOV-3 = experiment: as above; settings: read-out: Cytotoxicity IC50, SKOV-3, SKOV-3 ovarian cell line
Method: as §1

CH1 = experiment: as above; settings: read-out: Cytotoxicity IC50, CH1
Method: as §1

[2] = system: ovarian carcinoma cell lines; experiment: Cytotoxicity across the group of four ovarian carcinoma cell lines; type: cell-based, human; settings: versus compounds 8 and 9; in three out of the four lines
Method: Assessment of growth inhibition was performed in a small panel of (e.g.) human ovarian carcinoma cell lines using the Sulforhodamine B (SRB assay) (Kelland et al, Cancer Research 54, 5618-5622 (1994). The cell lines grew as monolayers in Dulbecco's Modified Eagle's medium containing 10% foetal bovine serum (Imperial Laboratories, Andover, UK) supplemented with 2 mM glutamine and 0.5 μg/ml hydrocortisone in 6% CO2/94% air. The compound to be tested was dissolved in 10% dimethylsulfoxide. Cells were seeded into 96-well microtitre plates at 3000-5000 per well and allowed to attach overnight. Serial dilutions of drug in growth medium were then added to quadruplicate wells (with 8 control untreated wells) and left to incubate under normal growth conditions for 96 hr, unless otherwise stated. The medium was then removed and wells fixed with 10% trichloroacetic acid and stained with 0.4% SRB in 1% acetic acid as described previously (Kelland et al ref). Basic amino acid content in each well was then measured by solubilizing the bound SRB with 10 mM Tris and using a Titertek Multiscan MCC/340 MKII plate reader set at 540 nm. Mean absorbance was then expressed as a percentage of the control untreated well absorbance and plotted vs drug concentration. […]

MCF-7 (breast) = experiment: Growth inhibition, carcinoma cell lines (MTT assay or cell counting); type: cell-based; settings: 96 hour exposure, repeat determinations
Method: Compounds 8 and 13 were then tested more extensively against a range of carcinoma cell lines: MCF-7 (breast,); RKO and H630 (colon); A2780 and OAW42 (ovary) and H838 (lung).
Figures in bold were determined using cell counting method, all other values by the MTT assay.
The growth inhibition assays reported above were carried out using standard techniques, some examples of which are detailed below.

[3] = system: transcription at A/T sites; experiment: In vitro transcription assay; type: biochemical
Excerpt: Compound (13) has been examined in an in vitro transcription assay. […] In addition, compound (13) inhibited transcription at least 10-fold more efficiently than compound (9), consistent with its increased cytoxicity. It is thus tempting to speculate that the activity of (13) in vitro and in vivo may be related to its potent ability to inhibit transcription specifically at a small sub-set of A/T sites.

[4] = system: ovarian lines in the NCI 60-cell line panel; experiment: NCI 60-cell line panel; type: cell-based; settings: several ovarian lines

Structure (SMILES) | DNA site preference [1] | IC50 (A2780) | IC50 (A2780-PT^R) | IC50 (SKOV-3) | IC50 (CH1) | affinity for 5′-TATA sites ([1]; 5′-TATA sites) | Kd ([1]; quantitative DNase I footprinting, 5′-AATT site, read-out: affinity for the 5′-AATT site) | binding to AT-sites, fold better than compound (9) ([1]; relative to compound (9)) | cytotoxic activity, fold more active than the others [2] | IC50 (MCF-7 (breast)) | inhibition of transcription ([3]; at a number of A/T sites) | inhibition of transcription, fold more efficient than compound (9) ([3]; relative to compound (9)) | activity in ovarian lines of NCI 60-cell line panel [4]
Oc1ccc(-c2nc3cc(-c4ccc5[nH]c(-c6ccc(O)cc6)nc5c4)ccc3[nH]2)cc1 [Compound 9, 4′,4′-[5,5-bi-1H-Benzimidazole]-2,2-diylbis-phenol] | interact preferentially with some A/T sites | 4300 nM | 2700 nM | 16000 nM | 1050 nM | – | – | – | – | – | – | – | –
CN(C)CCCOc1ccc(-c2nc3cc(-c4ccc5[nH]c(-c6ccc(OCCCN(C)C)cc6)nc5c4)ccc3[nH]2)cc1 [Compound 13, 2,2-bis-[4′-(3″-Dimethylamino-1″-propyloxy)phenyl]-5,5-bi-1H-benzimidazole] | interact preferentially with some A/T sites | 235 nM | 115 nM | 375 nM | 240 nM | relatively low affinity | 30 nM | 7-10 fold | over 10 fold | 43 nM and 69 nM | effectively inhibits transcription at a number of A/T sites | at least 10 fold | significant activity
CN1CCN(c2ccc3[nH]c(-c4ccc5[nH]c(-c6ccc(O)cc6)nc5c4)nc3c2)CC1 [Hoechst 33258, reference compound] | – | 12000 nM | 9500 nM | > 100000 nM | 26500 nM | – | – | – | – | – | – | – | –
